Test results: PMC6874530, “Structural analysis identifies an escape route from the adverse lipogenic effects of liver X receptor ligands” (Communications Biology, 2019)
pEC50, pKd, pKi: −log10 of the molar value.

Key:
[1] = biological target: T1, LXRβ LBD (Homo sapiens, UniProt P55055); assay: biochemical; conditions: Receptor-binding affinity pKi LXRβ, value (SD, n independent experiments)
T1 sequence (P55055 215-460 limits assumed): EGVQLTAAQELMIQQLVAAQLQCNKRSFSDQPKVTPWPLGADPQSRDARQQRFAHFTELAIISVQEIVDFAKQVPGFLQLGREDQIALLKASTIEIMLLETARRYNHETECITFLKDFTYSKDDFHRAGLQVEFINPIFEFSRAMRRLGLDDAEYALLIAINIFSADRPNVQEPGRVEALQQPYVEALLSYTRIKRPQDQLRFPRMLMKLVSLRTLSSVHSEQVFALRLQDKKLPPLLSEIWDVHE
Source text: (§5) The compounds were run in triplicate (binding assay) or in quadruplicate (transactivation assay). Standard deviations are indicated for individual experiments run more than once.

[2] = biological target: T2, LXRβ (Homo sapiens, UniProt P55055); assay: Gal4 one hybrid reporter gene (transactivation) assay in U2OS cells, LXRβ; format: cell-based
T2 construct: expression vectors pSG5-Gal4-LXRα LBD or pSG5-Gal4-LXRβ LBD; expressed in transfected cells; host or cells: U2OS osteosarcoma cells
T2 sequence (P55055 222-460 limits assumed): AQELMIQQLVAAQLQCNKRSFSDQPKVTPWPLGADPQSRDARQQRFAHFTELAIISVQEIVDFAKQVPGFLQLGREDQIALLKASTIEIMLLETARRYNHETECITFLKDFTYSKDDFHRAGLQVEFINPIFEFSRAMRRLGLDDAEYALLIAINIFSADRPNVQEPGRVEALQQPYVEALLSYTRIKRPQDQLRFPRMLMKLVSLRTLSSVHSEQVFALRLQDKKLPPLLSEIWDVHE
Procedure: (§1) Transactivation assays were performed in U2OS osteosarcoma cells (ATCC, USA). […] Ligands were added at ten different concentrations 2 h post transfection and the luciferase activity was measured after 40 h.

[3] = biological target: T3, LXRα LBD (Homo sapiens, UniProt Q13133); assay: biochemical; conditions: Receptor-binding affinity pKi LXRα, value (SD, n independent experiments)
T3 sequence (Q13133 200-447): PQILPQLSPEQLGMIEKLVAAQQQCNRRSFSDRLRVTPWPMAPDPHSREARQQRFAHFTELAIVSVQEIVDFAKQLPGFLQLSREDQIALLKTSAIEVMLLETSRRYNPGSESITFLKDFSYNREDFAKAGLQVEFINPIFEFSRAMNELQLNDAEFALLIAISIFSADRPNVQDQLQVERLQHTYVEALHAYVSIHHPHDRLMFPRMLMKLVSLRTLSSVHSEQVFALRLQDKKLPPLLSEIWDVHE
Source text: as §5

[4] = biological target: T3, LXRα LBD; assay: differential HDX-MS of LXRα LBD (apo vs ligand-bound); set-up: Human his-tagged LXRα LBD (200-447); His tag; made in house; host or cells: Escherichia coli BL21(DE3); conditions: HDX-MS
Procedure: (§2) Prior to the deuterium incorporation experiments, 10 µM apo LXR was incubated with 10× excess of ligand or equal volume of DMSO for 30 min at room temperature. In the experiments with cofactors, 15× excess of the SRC1 coactivator peptide and the NCOR1 corepressor peptide were added to the ligand-bound or apo proteins, respectively, and incubated for 30 min at room temperature. […] A fully deuterated sample was generated by incubating protein with 4 M guanidine-HCl in D2O for 30 min at 45 °C. Exchange reactions were performed with a CTC PAL sample handling robot (LEAP Technologies). Labeling times were 30, 60, 180, 600, and 1800 s in the kinetics experiments. Differential HDX of a complete compound selection was measured after 30 and 600 s of labeling time points. Reactions were conducted by incubating 4 µl of LXR with 50 µl of D2O buffer (containing 25 mM Tris-HCl (pD 7.6), 50 mM NaCl, 10% glycerol, and 1 mM TCEP). The exchange reaction was stopped by the addition of 50 µl of quench solution (3 M urea, 0.1% TFA) followed by immediate injection into a Enzymate BEH Pepsin 2.1 × 30 mm Column (Waters, UK) for protein digestion (2 min at 24 °C). Peptic digest was further injected on a Waters nanoACQUITY UPLC System where peptides were first desalted by trapping for 3 min on a VanGuard Pre-Column Acquity UPLC BEH C18 (1.7 μm; 2.1 × 5 mm), and then eluted over a 6-min 5–40% (vol/vol) acetonitrile (containing 0.1% formic acid) gradient into a Waters Synapt G2-Si mass spectrometer. Peptide separation was conducted at 0.1 °C. All exchange reactions were performed in triplicates.
(§3) Peptides from three samples of non-deuterated LXR were identified by using the ProteinLynx Global Server (PLGS Waters, UK). Peptides with an intensity of over 5000, a mass error < 5 ppm, and present in at least two of the three data acquisitions were pooled and imported into the DynamX data analysis software (Waters, UK). After a first round of automated spectral processing by using DynamX, each peptide was inspected manually for suitability for further analysis.
(§4) For pairwise comparison, MEMHDX software was used to identify statistically significant changes of deuterium uptake. For all peptides, a value of relative exchange per amino acid was corrected to back exchange. The mean deuteration level per amino acid was calculated by using Matlab (Mathworks)[69] and subsequently mapped onto the crystal structures with PyMOL (Schrodinger LLC). For structural representation, loop modeling with MOE (Chemical Computing Group Inc.) was applied on 2ACL.pdb file for LXRα LBD, and 1PQC.pdb for LXRβ LBD.

[5] = biological target: T4, LXRα (Homo sapiens, UniProt Q13133); assay: Gal4 one hybrid reporter gene (transactivation) assay in U2OS cells, LXRα; format: cell-based
T4 construct: expression vectors pSG5-Gal4-LXRα LBD or pSG5-Gal4-LXRβ LBD; expressed in transfected cells; host or cells: U2OS osteosarcoma cells
T4 sequence (Q13133 209-447 limits assumed): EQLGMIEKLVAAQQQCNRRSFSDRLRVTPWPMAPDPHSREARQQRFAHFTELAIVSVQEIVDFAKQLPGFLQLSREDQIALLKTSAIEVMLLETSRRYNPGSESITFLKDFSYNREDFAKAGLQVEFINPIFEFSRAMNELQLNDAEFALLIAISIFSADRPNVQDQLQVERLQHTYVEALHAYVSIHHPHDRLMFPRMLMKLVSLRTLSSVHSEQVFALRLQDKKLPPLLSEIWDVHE
Procedure: as §1

[6] = biological target: T1, LXRβ LBD; assay: differential HDX-MS of LXRβ LBD (apo vs ligand-bound); set-up: human his-tagged LXRβ LBD (216-461); His tag; made in house; host or cells: Escherichia coli BL21(DE3); conditions: after 30 s of deuterium exchange
Procedure: as §2, §3, §4

[7] = biological target: T5, LXRβ/SRC1 (Homo sapiens, UniProt P55055); assay: SPR cofactor recruitment, LXRβ LBD binding to immobilized SRC1 coactivator peptide
T5 construct: human his-tagged LXRβ LBD (216-461); His tag; made in house; host or cells: Escherichia coli BL21(DE3)
T5 sequence (P55055 215-460 limits assumed): T1 sequence (P55055 215-460 limits assumed)
T5 sequence (Q15788 with tags, fused parts or gaps partner limits assumed): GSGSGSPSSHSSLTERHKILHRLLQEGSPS
Procedure: The peptides carried an N-terminal biotin for surface immobilization on a Xantec NID200M Sensor Chip (NTA-derivatized carboxymethyldextran hydrogel, XanTec bioanalytics GmbH) preloaded with Ni^2+. […] LXRα and LXRβ LBD proteins were serially diluted in SPR running buffer (10 mM HEPES, 150 mM NaCl, and 0.05% Tween 20, pH 7.4) to a broad range of concentrations (0.02–10 µM) and equilibrated with tested compound (50 μM) prior to the sample injection over a modified biosensor surface. LXR-ligand complexes were injected in quick succession for 120 s over immobilized cofactor peptides and reference surfaces along with blank samples followed by 900 s of dissociation. The binding level at equilibrium was monitored for all samples, including the reference sample that contained DMSO at equal amount as tested compounds. All data were normalized to this reference sample in order to quantify the effects on peptide binding without bias by receptor instability. The surface was regenerated with 0.5% (w/v) SDS after each injection. Binding responses in the steady-state region of the sensorgrams were plotted against LXR LBD concentration to determine the overall equilibrium-binding affinity by fitting the data to nonlinear regression (Prism 8; GraphPad).

Compound: C[C@H](CC[C@@H]1OC1(C)C)[C@H]1CC[C@H]2[C@@H]3CC=C4C[C@@H](O)CC[C@]4(C)[C@H]3CC[C@]12C [24,25EC, 24(S),25-epoxycholesterol, reference compound]
- pKi [1]: 6.88
- agonist activity in the Gal4 reporter gene assay, LXRβ [2]: No signal was observed
- pEC50 ([2]; LXRβ transactivation pEC50, U2OS cells, Gal4-LXRβ LBD, value (SD, n)): < 4.30
- pKi [3]: 6.56
- stabilization of LXRα H12 [4]: did not stabilize LXRα H12
- agonist activity in the Gal4 reporter gene assay, LXRα [5]: No signal was observed
- EC50 ([5]; U2OS cells, Gal4-LXRα LBD, value (SD, n), read-out: LXRα transactivation pEC50 (converted)): > 50.1 µM
- protection of LXRβ H11–H12 from deuterium exchange [6]: 10%
- pKd [7]: 5.60
